Measured values published in US20180333382A1, “PHARMACEUTICAL COMPOSITIONS COMPRISING DGLA AND USE OF SAME” (DS Biopharma Limited, priority 2017, published 2018).
Several values for one entry are separate records, joined by “and”; a condition that tells them apart may be missing. Equal values may be shown once.

Tested on: spontaneous hypertensive rats
Assay: Arterial pressure and phenylephrine-induced hypertensive response after seven days of gavage (DGLA, aspirin, DGLA + aspirin)
Assay type: in vivo, rat
Conditions: for Mean arterial pressure at baseline, Average SAP / Mean arterial pressure with an intravenous dose of Phenylephrine 20 μg/kg, Average SAP / Mean arterial pressure at baseline, individual rats / Mean arterial pressure with an intravenous dose of Phenylephrine 20 μg/kg, individual rats: seven consecutive days of gavage; for Mean arterial pressure at baseline, individual rats / Mean arterial pressure with an intravenous dose of Phenylephrine 20 μg/kg, individual rats: Rat #1-#5; for Arterial pressure, Diastol / Arterial pressure, Systol / Mean systemic arterial pressure: seven days of gavage, before phenylephrine
Method: An in vivo investigation of anti-hypertension efficacy following co-administration of DGLA and aspirin in spontaneous hypertensive rats was conducted. This experiment investigated the efficacy of DGLA when co-administered chronically with aspirin to reduce the hypertensive response induced acutely by phenylephrine in spontaneous hypertensive rats. Spontaneously hypertensive adult male rats (250-300 g), bred by Charles River Laboratories, were used for this assay. The animals were identified upon arrival as per CCPA guidelines. The animals were pair-housed by group (low dose+aspirin, high dose+aspirin or aspirin alone) for the duration of the oral gavage prior to surgery. All animal care and vivarium maintenance was recorded, with documents kept at the test facility.
The concentrations of DGLA to be tested (50 and 500 mg/kg) as well as the concentration of aspirin (10 mg/kg) were selected by the Sponsor based on information available at the time of design of this study. They were selected to cover a range of concentrations useful for the identification of the mechanism of action of the test article.
All solution preparations were documented on a Solution Contents Form, defining labelling information and all relevant information on reagents: batch number, storage conditions, contents, and preparation/expiry dates.
The test article was formulated using olive oil as the vehicle. This stock solution was then administered by oral gavage once per day for seven consecutive days. A low and a high dose (50 mg/kg and 500 mg/kg) were tested.
A 5 mg/ml stock solution of aspirin was prepared by dissolving the appropriate amount of aspirin in 100% DMSO which was then diluted in water. The concentration of DMSO was less than 1%. The appropriate volume was administered by oral gavage to each animal once per day for seven consecutive days. The stock solution was stored at room temperature and was considered stable for the duration of the gavage.
The appropriate volume was administered to each animal by an intravenous injection at the end of the experiment on the surgery day. The stock solution was stored at 4° C. and was considered stable for the duration of the experiment.
A stock solution of phenylephrine of 1 mg/ml were prepared in PBS (pH=7.4±0.05). The stock solution was stored at 4° C. The expiration date was set at 14 days after preparation.
Male spontaneous hypertensive rats weighing approximately 300 g arrived at the facility at least two days before beginning the oral gavage. Animals were assigned to one of three groups (low dose+aspirin, high dose+aspirin, and aspirin), and were pair-housed during the acclimation period. Each group (n=4) received the appropriate compound by oral gavage using a 16 G feeding needle. The stock solution was administered once per day for seven consecutive days. On the seventh day of administration, the animals underwent surgery and hypertensive monitoring.
Rats were anesthetized with a 2.5-3.0% isoflurane-O2 mixture in an induction box. When the animals were removed from the induction box, they were connected onto a nose cone to maintain anesthesia during the tracheotomy. The animals were tracheotomised with an endotracheal tube (7 cm length from connector to the tip made with a PE205 tube from BD and a 16 G needle) to facilitate spontaneous breathing, stabilize hemodynamics, and to keep the rat under anesthesia with an isoflurane-O2 mixture. Two catheters were inserted: one in the right femoral artery for systemic arterial pressure (SAP) measurement, and one in the right femoral vein for delivery of the hypertensor and positive control. ECG signals were acquired with ECG contacts placed in a Lead-1 configuration on the anaesthetized animal, and a pulse oxymeter was attached to the animal's hind paw to enable continuous monitoring of the general condition of the rat during the surgical procedure.

## CCCCC/C=C\C/C=C\C/C=C\CCCCCCC(=O)O [DS107G, Dihomo gamma linolenic acid]
DGLA 50 mg/kg
  Mean arterial pressure at baseline, Average SAP: 74.5 mm of Hg
  Mean arterial pressure with an intravenous dose of Phenylephrine 20 μg/kg, Average SAP: 115.7 mm of Hg
  Mean arterial pressure at baseline, individual rats: 51.77 mm of Hg and 87.81 mm of Hg and 62.11 mm of Hg and 86.01 mm of Hg and 84.93 mm of Hg
  Mean arterial pressure with an intravenous dose of Phenylephrine 20 μg/kg, individual rats: 91.82 mm of Hg and 137.84 mm of Hg and 105.44 mm of Hg and 132.68 mm of Hg and 110.72 mm of Hg
  Arterial pressure, Diastol: 75 mmHg
  Arterial pressure, Systol: 120 mmHg
  Mean systemic arterial pressure: 90 mmHg
DGLA 500 mg/kg
  Mean arterial pressure at baseline, Average SAP: 82.2 mm of Hg
  Mean arterial pressure with an intravenous dose of Phenylephrine 20 μg/kg, Average SAP: 112.1 mm of Hg
  Mean arterial pressure at baseline, individual rats: 64.81 mm of Hg and 91.55 mm of Hg and 94.41 mm of Hg and 66.56 mm of Hg and 93.64 mm of Hg
  Mean arterial pressure with an intravenous dose of Phenylephrine 20 μg/kg, individual rats: 105.21 mm of Hg and 119.33 mm of Hg and 118.12 mm of Hg and 97.17 mm of Hg and 120.82 mm of Hg
  Arterial pressure, Diastol: 80 mmHg
  Arterial pressure, Systol: 135 mmHg
  Mean systemic arterial pressure: 98 mmHg
DGLA 50 or 500 mg/kg alone, effect eliminated by aspirin
  effect on arterial pressure in spontaneously hypertensive rats: successfully decreases the arterial pressure
Spontaneous hypertensive rats treated with DGLA alone, observed previously
  lowering of the mean systemic arterial blood pressure: up to 25%
